# Reference: patent publication US20260158149A1, “GLYCOSYLATED PRODRUGS” (UNIVERSITEIT LEIDEN, priority 2021, published 2026)
# Tests used:
# [1] = system: Gr target genes fkbp5, pck1 and nfkbiaa; experiment: qPCR of Gr target genes fkbp5, pck1, nfkbiaa; format: in vivo, Zebrafish (Danio rerio)
# Method: For experiments in zebrafish, gene expression was measured using 3 dpf embryos. Groups of 15 larvae were collected in TRIzol reagent (Invitrogen) and mRNA was isolated using the miRNeasy mini kit (Qiagen), according to the manufacturer's instructions. For experiments in HeLa cells, samples were collected from a single well from 6 well plates (80% confluent) in TRIzol reagent and mRNA was isolated using the RNeasy mini kit. Zebrafish and cells samples were treated with DNAse utilizing the DNA-Free™ kit (Ambion). The cDNA synthesis was performed using iScript cDNA synthesis kit (Bio-Rad) using 1 μg of RNA per sample. For qPCR, 10 μM of forward and 10 μM of reverse primer, 12.5 μL of iQ SYBR Green Supermix (Bio-Rad), and 2 μL of cDNA were added to the qPCR reaction mixture. […] The qPCR reactions were performed on a MyiQ-single-color real-time PCR detection system (Bio-Rad) with initial denaturation for 3 min at 95° C. and 40 cycles of 15 s at 95.5° C., 15 s at 60° C., and 30 s at 72° C. Cycle threshold values (Ct values, i.e. the cycle numbers at which a threshold value of the fluorescence intensity was reached) were determined for each sample. The gene expression level for each sample was normalized using the expression of ppial (peptidylprolyl isomerase Ab (cyclophilin A)) for zebrafish samples, and 18S rRNA for human cells. The fold change per sample (compared to the respective control group) was calculated using the ΔΔCt method.
# human GR = target: T1, human GR (Homo sapiens, UniProt P04150); experiment: PolarScreen Glucocorticoid Receptor Competitor Assay
# T1 sequence (P04150 1-777): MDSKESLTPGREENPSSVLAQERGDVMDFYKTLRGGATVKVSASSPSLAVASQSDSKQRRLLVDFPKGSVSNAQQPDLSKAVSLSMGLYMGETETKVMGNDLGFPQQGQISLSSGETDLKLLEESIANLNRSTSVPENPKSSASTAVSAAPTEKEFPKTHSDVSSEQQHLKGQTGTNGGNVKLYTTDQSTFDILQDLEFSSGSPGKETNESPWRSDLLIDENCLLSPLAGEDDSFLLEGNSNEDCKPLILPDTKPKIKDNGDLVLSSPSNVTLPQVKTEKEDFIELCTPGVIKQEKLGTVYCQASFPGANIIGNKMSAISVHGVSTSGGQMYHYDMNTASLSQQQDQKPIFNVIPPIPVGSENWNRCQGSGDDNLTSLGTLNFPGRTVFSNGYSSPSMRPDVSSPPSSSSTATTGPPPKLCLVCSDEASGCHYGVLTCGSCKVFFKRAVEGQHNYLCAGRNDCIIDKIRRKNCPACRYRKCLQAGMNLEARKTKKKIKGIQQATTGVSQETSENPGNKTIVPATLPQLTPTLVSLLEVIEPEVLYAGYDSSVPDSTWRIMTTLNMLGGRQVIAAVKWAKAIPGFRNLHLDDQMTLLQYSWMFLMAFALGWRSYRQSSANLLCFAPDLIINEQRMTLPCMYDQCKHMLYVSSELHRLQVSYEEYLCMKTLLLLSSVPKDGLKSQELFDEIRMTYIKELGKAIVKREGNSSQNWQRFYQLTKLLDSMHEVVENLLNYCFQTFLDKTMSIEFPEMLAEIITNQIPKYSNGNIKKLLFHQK
# IL-6 = experiment: CAIA model: serum IL-6 by ELISA; format: in vivo, mouse
# Method: All mice received 1.5 mg of a CAIA-cocktail (Chondrex) intravenously on day 1, followed by intraperitoneal (i.p.) injection of 50 μg LPS (Chondrex) on day 4. Mice were randomly divided into six groups. […] Scores were assigned blinded. […] The blood collection on day 14 was performed after 6 h fasting. On day 15, mice were sacrificed using carbon dioxide, and tissue samples were collected that were immediately frozen in liquid nitrogen. Applied humane endpoints were a total body weight loss of >20% in comparison to the day of LPS treatment or reaching an arthritis score of 45.
# IL-6 concentrations were determined by ELISA in the serum collected at days 10 and 15, using the IL-6 mouse ELISA kit (Invitrogen), following the manufacturer's protocol. The insulin concentration was determined in serum collected at day 14, using the Ultra-sensitive mouse insulin ELISA kit (Crystal Chem), following the manufacturer's protocol. Corticosterone concentrations were determined in serum collected at day 15, using the Corticosterone HS (high sensitivity) enzyme immunoassay kit (Immunodiagnostic Systems), following the manufacturer's protocol. Expression levels of various GR target genes were determined by qPCR in the tissue samples (homogenized in TRIzol Reagent (ThermoFisher)) collected at day 15.
# Larval body length = format: in vivo, Zebrafish (Danio rerio); details: 5 dpf, treatment from 2 hpf
# Method: (§1) When the regeneration of the tail fins after wounding or the larval body length was used as a readout, chemical treatments of the embryos were started at 2 hours post fertilization (hpf) and continued until 5 dpf. During this period, solutions were refreshed daily. At 5 dpf, larvae were imaged using a LeicaMZ16FA fluorescence stereomicroscope supported by LAS 3.7 software, and the length of the larvae was measured using ImageJ software (15 larvae per treatment group). For the regeneration experiments, tail fins were amputated at 2 dpf and larvae were imaged at 5 dpf (15 larvae per treatment group). The newly grown tissue can be distinguished from the old tissue, enabling precise measurement of the size of the newly grown tissue using ImageJ software.
# regenerated tail fin = experiment: Regeneration of the tail fin after wounding; format: in vivo, Zebrafish (Danio rerio); details: 5 dpf larvae, wounded at 2 dpf
# Method: as §1
structure (smiles),measurement,setting,value
"C[C@]12C=CC(=O)C=C1CC[C@@H]1[C@@H]2[C@@H](O)C[C@@]2(C)[C@H]1CC[C@]2(O)C(=O)CO[C@@H]1O[C@H](CO[C@@H]2O[C@H](CO)[C@@H](O)[C@H](O)[C@H]2O)[C@@H](O)[C@H](O)[C@H]1O [GbPdn, 21-O-Gentobiose-Prednisolone]","expression of Gr target genes fkbp5, pck1 and nfkbiaa",[1],lack of effect
same,decrease in the binding affinity relative to Pdn,human GR,~1400 fold
same,serum IL-6 level compared to other treated groups,"IL-6; day 10, 12.5 mg/kg",slightly higher IL-6 concentration compared to the other groups
same,serum IL-6 level compared to the vehicle group,"IL-6; day 10, all treatment groups",significant reduction of the IL-6 level
same,serum IL-6 level,"IL-6; day 15, 12.5 mg/kg",a very low level was detected in two (out of four) mice
same,serum IL-6 level,"IL-6; day 15, all groups except 12.5 mg/kg GbPdn",undetectable
same,larval length,Larval body length,neither did it affect the length of the larvae
same,tissue regeneration (length of regenerated tail fin),regenerated tail fin,small effect
same,tissue regeneration with MZ31,regenerated tail fin; GBA2 inhibitor MZ31,dependent on Gba2 activity
